Measurements as given in PMC8448677, “A novel assay based on pre-equilibrium titration curves for the determination of enzyme inhibitor binding kinetics” (European Biophysics Journal, 2021).
Starred links: 1 amine or outer side, 2 acyl side, 3 side chain; linkers in the order of their positions; H or OH if unused. Positions of bridges follow the written chain, without caps; N, C: chain ends. Non-standard residues stand in square brackets, D forms with d. Residues, ends and D or L forms follow the SMILES beside them. TBMB = c1c(C[*:1])cc(C[*:3])cc1C[*:2]; NMeR = CN[C@@H](CCCNC(=N)N)C(=O)O; hArg = N=C(N)NCCCC[C@H](N)C(=O)O; Aze = O=C(O)[C@@H]1CCN1; Sar = CNCC(=O)O

The compounds below were run against T1, Human PKal (plasma kallikrein) (Homo sapiens, UniProt P03952) (assay: Pre-equilibrium titration curve inhibition assay of plasma kallikrein (fluorogenic substrate H-Pro-Phe-Arg-AMC, global fit with Eq. 7)). Conditions: Ki = koff/kon from pre-equilibrium curves, 25 °C, pH 7.5, PKal 1 nM (0.25 nM for 4b), mean ± SD of at least 3 independent measurements, read-out: Ki.
T1 construct: purchased Molecular Innovations HPKA
T1 sequence (P03952 391-638 limits assumed): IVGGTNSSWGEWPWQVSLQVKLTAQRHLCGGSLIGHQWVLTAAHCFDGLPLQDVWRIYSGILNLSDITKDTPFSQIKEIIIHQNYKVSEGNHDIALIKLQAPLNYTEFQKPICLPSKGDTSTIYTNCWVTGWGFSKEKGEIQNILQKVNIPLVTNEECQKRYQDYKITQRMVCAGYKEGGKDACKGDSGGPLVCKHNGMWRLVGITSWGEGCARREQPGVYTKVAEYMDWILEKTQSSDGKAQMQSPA
T1 sequence (P03952 20-390 partner limits assumed): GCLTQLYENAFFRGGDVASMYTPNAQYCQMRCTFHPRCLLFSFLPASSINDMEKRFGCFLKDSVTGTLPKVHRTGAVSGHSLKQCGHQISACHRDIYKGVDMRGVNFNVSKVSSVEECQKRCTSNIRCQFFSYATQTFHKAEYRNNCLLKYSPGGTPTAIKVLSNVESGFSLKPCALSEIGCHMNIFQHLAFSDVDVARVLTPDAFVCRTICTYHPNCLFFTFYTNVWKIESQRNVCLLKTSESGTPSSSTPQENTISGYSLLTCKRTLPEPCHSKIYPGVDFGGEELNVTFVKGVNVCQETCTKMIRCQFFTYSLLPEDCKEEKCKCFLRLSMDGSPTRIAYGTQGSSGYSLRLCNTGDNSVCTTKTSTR
Format: biochemical
Method: The TBMB-based bicyclic peptide inhibitors of PKal used in this study are listed in Table 1, some of which have been described previously (Teufel et al. [2018]). Experiments were performed at 25 °C in 20 mM Tris–HCl, 150 mM NaCl, 1 mM EDTA, 0.1% PEG-6000, 0.1% Triton X-100, pH 7.5. Human PKal (Molecular Innovations, cat. HPKA, typical nominal concentration 1 nM for all peptides except 0.25 nM for peptide 4b) was pre-incubated in 96-well plates with different concentrations of the tested peptide (typically a serial twofold dilution plus a control with no peptide) in a reaction volume of 90 µL. At different timepoints, the fluorogenic substrate H-Pro-Phe-Arg-AMC (Bachem, cat. I-1295.0050, 10 µL, 20 µM final) was added to the relevant wells, and the increase in fluorescence at 480 nm (with excitation at 360 nm) was recorded using a Spectramax M2e plate reader (Molecular Devices). Initial rates of substrate hydrolysis were obtained by linear fit of the raw fluorescence vs. time traces. In addition, fluorescence was recorded ensuring that no more than 10% of the substrate were hydrolyzed, and for periods of time (typically 30–60 s) short enough to obtain linear traces. The data were plotted as the initial rate of substrate hydrolysis vs. peptide concentration for the different times of incubation prior to substrate addition (as shown in Fig. 3) and analyzed using Eq. 7.
To compute unique values of kon and koff, data sets such as those of Fig. 3 must be analyzed “globally”, i.e., considering all pre-equilibrium inhibition curves as a unique data set, as allowed by modern nonlinear regression analysis software’s. In this study, we used GraphPad Prism ver. 5.02 (GraphPad Software Inc., La Jolla, CA) applying equal weighting (i.e., performing minimization based on absolute distances squared), and we invite the reader to consult the software’s user’s manual for a detailed description of how global fitting of such data sets can be performed (https://cdn.graphpad.com/faq/2/file/Prism_v5_Regression_Guide.pdf). One point to highlight is that the parameters kon, koff and E0 should be “shared”, to employ the terminology used in GraphPad Prism, i.e., that one unique value of these parameters is used to fit the data. […] As discussed previously for the analysis of data obtained under equilibrium, i.e., using Eq. 1 (see Teufel et al. [2018]), the term E0 in Eq. 7 can be treated as a shared but adjustable parameter or, as here, fixed to its known value. The terms v0, kon and koff, by contrast, always need to be treated as adjustable parameters. Finally, the knowledge of the kinetic parameters kon and koff enables calculation of the equilibrium inhibition constant Ki (Ki = koff/kon).
In the case of H-Pro-Phe-Arg-AMC, however, the Km for human PKal is large (Teufel et al. [2018]) and experiments were performed under conditions where [S] < < Km. Therefore, the values for kon, koff and Ki reported here can be considered as representing actual values.

In order of falling Ki:
1. CC(=O)N[C@H]1CSCc2cc3cc(c2)CSC[C@H](NC(=O)[C@H](Cc2c[nH]c4ccccc24)NC(=O)[C@@H]2CCCN2C(=O)[C@H](CC(N)=O)NC(=O)[C@H](Cc2c[nH]c4ccccc24)NC(=O)[C@H]([C@@H](C)O)NC(=O)[C@H](CC(N)=O)NC1=O)C(=O)N1CCC[C@H]1C(=O)N[C@@H](Cc1c[nH]c2ccccc12)C(=O)N[C@@H](CC(=O)O)C(=O)N[C@@H](C)C(=O)N1CCC[C@H]1C(=O)N[C@@H](CC(C)C)C(=O)N[C@H](C(=O)N[C@@H](C)C(=O)N(C)CC(=O)N(C)CC(=O)N(C)CC(=O)N[C@H](CCCNC(=N)N)C(=O)N[C@H](CCCNC(=N)N)C(N)=O)CSC3 [Peptide 1b] (Ac-CNTWNPWCPWDAPLCA[Sar][Sar][Sar][dR][dR]-NH2; linker 1-8-15 via TBMB)  1.8 ± 0.2 nM
2. CC(=O)N[C@H]1CSCc2cc3cc(c2)CSC[C@H](NC(=O)[C@H](CCCNC(=N)N)N(C)C(=O)[C@H](Cc2ccc(O)cc2)NC(=O)[C@@H]2CCN2C(=O)[C@H](Cc2ccccc2)NC(=O)[C@H](CO)NC1=O)C(=O)N[C@@H](CC(C)C)C(=O)N[C@@H](Cc1c[nH]cn1)C(=O)N[C@@H](CCC(N)=O)C(=O)N[C@@H](CC(=O)O)C(=O)N[C@@H](CC(C)C)C(=O)N[C@H](C(N)=O)CSC3 [Peptide 5d] (Ac-CSF[Aze]Y[NMeR]CLHQDLC-NH2; linker 1-7-13 via TBMB)  0.55 ± 0.06 nM
3. CC(=O)N[C@H]1CSCc2cc3cc(c2)CSC[C@H](NC(=O)[C@H](CCCCNC(=N)N)NC(=O)[C@H](Cc2ccc(O)cc2)NC(=O)[C@@H]2CCCN2C(=O)[C@H](Cc2ccccc2)NC(=O)[C@H](CO)NC1=O)C(=O)N[C@@H](CC(C)C)C(=O)N[C@@H](Cc1c[nH]cn1)C(=O)N[C@@H](CCC(N)=O)C(=O)N[C@@H](CC(=O)O)C(=O)N[C@@H](CC(C)C)C(=O)N[C@H](C(N)=O)CSC3 [Peptide 5b] (Ac-CSFPY[hArg]CLHQDLC-NH2; linker 1-7-13 via TBMB)  0.53 ± 0.07 nM
4. CC(=O)N[C@H]1CSCc2cc3cc(c2)CSC[C@H](NC(=O)[C@H](CCCNC(=N)N)NC(=O)[C@H](Cc2ccc(O)cc2)NC(=O)[C@@H]2CCCN2C(=O)[C@H](Cc2ccccc2)NC(=O)[C@H](CO)NC1=O)C(=O)N[C@@H](CC(C)C)C(=O)N[C@@H](Cc1c[nH]cn1)C(=O)N[C@@H](CCC(N)=O)C(=O)N[C@@H](CC(=O)O)C(=O)N[C@@H](CC(C)C)C(=O)N[C@H](C(N)=O)CSC3 [Peptide 5a] (Ac-CSFPYRCLHQDLC-NH2; linker 1-7-13 via TBMB)  0.36 ± 0.06 nM
5. CC(=O)N[C@H]1CSCc2cc3cc(c2)CSC[C@H](NC(=O)[C@H](CCCNC(=N)N)NC(=O)[C@H](Cc2ccc(O)cc2)NC(=O)[C@@H]2CCCN2C(=O)[C@H](Cc2ccccc2)NC(=O)[C@H](CO)NC1=O)C(=O)N[C@@H](CC(C)C)C(=O)N[C@@H](Cc1c[nH]cn1)C(=O)N[C@@H](CCC(N)=O)C(=O)N[C@@H](CC(=O)O)C(=O)N[C@@H](CC(C)C)C(=O)N[C@H](C(N)=O)CSC3 [Peptide 2c] (Ac-CSFPYRCLHQDLC-NH2; linker 1-7-13 via TBMB)  0.34 ± 0.04 nM
6. CC(=O)N[C@H]1CSCc2cc3cc(c2)CSC[C@H](NC(=O)[C@H](CCCCNC(=N)N)NC(=O)[C@H](Cc2ccc(O)cc2)NC(=O)[C@@H]2CCN2C(=O)[C@H](Cc2ccccc2)NC(=O)[C@H](CO)NC1=O)C(=O)N[C@@H](C)CN[C@@H](Cc1c[nH]cn1)C(=O)N[C@@H](CCC(N)=O)C(=O)N[C@@H](CC(=O)O)C(=O)N[C@@H](CC(C)C)C(=O)N[C@H](C(N)=O)CSC3 [Peptide 2d]  0.22 ± 0.04 nM
7. CC(=O)N[C@H]1CSCc2cc3cc(c2)CSC[C@H](NC(=O)[C@H](CCCNC(=N)N)NC(=O)[C@H](C)NC(=O)[C@@H]2CCCN2C(=O)[C@H](Cc2c[nH]c4ccccc24)NC(=O)[C@H](CO)NC1=O)C(=O)N[C@@H](CC(C)C)C(=O)N[C@@H](Cc1c[nH]cn1)C(=O)N[C@@H](CCC(N)=O)C(=O)N[C@@H](CC(=O)O)C(=O)N[C@@H](CC(C)C)C(=O)N[C@H](C(N)=O)CSC3 [Peptide 2b] (Ac-CSWPARCLHQDLC-NH2; linker 1-7-13 via TBMB)  0.1 ± 0.02 nM
8. CC(=O)N[C@H]1CSCc2cc3cc(c2)CSC[C@H](NC(=O)[C@H](CCCCNC(=N)N)NC(=O)[C@H](Cc2ccc(O)cc2)NC(=O)[C@@H]2CCN2C(=O)[C@H](Cc2ccccc2)NC(=O)[C@H](CO)NC1=O)C(=O)N[C@@H](CC(C)C)C(=O)N[C@@H](Cc1c[nH]cn1)C(=O)N[C@@H](CCC(N)=O)C(=O)N[C@@H](CC(=O)O)C(=O)N[C@@H](CC(C)C)C(=O)N[C@H](C(N)=O)CSC3 [Peptide 5c] (Ac-CSF[Aze]Y[hArg]CLHQDLC-NH2; linker 1-7-13 via TBMB)  0.061 ± 0.027 nM

Same assay, conditions: Ki, Ki = koff/kon from pre-equilibrium curves, 25 °C, pH 7.5, PKal 1 nM (0.25 nM for 4b), mean ± SD of at least 3 independent measurements

CC[C@H](C)[C@@H]1NC(=O)[C@H](CC(=O)O)NC(=O)[C@@H]2CCCN2C(=O)[C@H](Cc2ccc(O)cc2)NC(=O)[C@H](Cc2ccc(O)cc2)NC(=O)[C@H](C(C)C)NC(=O)[C@@H]2CSCc3cc(cc(c3)CSC[C@@H](C(=O)N[C@@H](C)C(=O)N(C)CC(=O)N(C)CC(=O)N(C)CC(=O)N[C@H](CCCNC(=N)N)C(=O)N[C@H](CCCNC(=N)N)C(N)=O)NC1=O)CSC[C@H](NC(C)=O)C(=O)N[C@@H](CO)C(=O)N[C@@H](Cc1ccccc1)C(=O)N1CC[C@H]1C(=O)N[C@@H](Cc1ccc(O)cc1)C(=O)N[C@@H](CCCCNC(=N)N)C(=O)N2 [Peptide 4b] (Ac-CSF[Aze]Y[hArg]CVYYPDICA[Sar][Sar][Sar][dR][dR]-NH2; linker 1-7-14 via TBMB) gave a Ki of 0.14 ± 0.02 nM.
